Measurements reported in paper PMC7368294 (Proceedings of the National Academy of Sciences of the …, 2020).

Tests used:
Experiment in all cases: cell-based
Design in all cases: species or system Xenopus laevis oocytes
[1] = molecular target: Btα1/Btα2/Btα8/Btβ1 nAChR (Bombus terrestris, UniProt A0A9B0BGM1+A0A9B0F4H3+A0A9B2JDZ7+A0A9B2JMX7)
Btα1/Btα8/Btβ1 nAChR = molecular target: T1, Btα1/Btα8/Btβ1 nAChR (Bombus terrestris, UniProt A0A9B0BGM1+A0A9B0F4H3+A0A9B2JDZ7)
T1 sequence (A0A9B0F4H3 44-615): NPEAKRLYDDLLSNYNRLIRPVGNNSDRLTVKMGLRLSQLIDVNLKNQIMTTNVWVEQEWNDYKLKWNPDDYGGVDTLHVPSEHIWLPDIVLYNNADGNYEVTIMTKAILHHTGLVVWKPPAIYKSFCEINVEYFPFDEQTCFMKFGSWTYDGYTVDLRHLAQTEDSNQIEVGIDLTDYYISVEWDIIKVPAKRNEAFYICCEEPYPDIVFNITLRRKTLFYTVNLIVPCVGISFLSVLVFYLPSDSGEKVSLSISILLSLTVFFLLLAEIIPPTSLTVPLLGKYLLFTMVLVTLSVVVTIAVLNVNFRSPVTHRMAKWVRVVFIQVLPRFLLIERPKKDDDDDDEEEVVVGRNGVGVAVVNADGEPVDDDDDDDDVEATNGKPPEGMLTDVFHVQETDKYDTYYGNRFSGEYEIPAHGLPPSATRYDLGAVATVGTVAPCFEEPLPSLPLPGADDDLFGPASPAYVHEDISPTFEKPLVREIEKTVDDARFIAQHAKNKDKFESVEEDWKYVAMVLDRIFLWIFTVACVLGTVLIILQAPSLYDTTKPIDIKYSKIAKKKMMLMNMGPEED
T1 sequence (A0A9B2JDZ7 22-535): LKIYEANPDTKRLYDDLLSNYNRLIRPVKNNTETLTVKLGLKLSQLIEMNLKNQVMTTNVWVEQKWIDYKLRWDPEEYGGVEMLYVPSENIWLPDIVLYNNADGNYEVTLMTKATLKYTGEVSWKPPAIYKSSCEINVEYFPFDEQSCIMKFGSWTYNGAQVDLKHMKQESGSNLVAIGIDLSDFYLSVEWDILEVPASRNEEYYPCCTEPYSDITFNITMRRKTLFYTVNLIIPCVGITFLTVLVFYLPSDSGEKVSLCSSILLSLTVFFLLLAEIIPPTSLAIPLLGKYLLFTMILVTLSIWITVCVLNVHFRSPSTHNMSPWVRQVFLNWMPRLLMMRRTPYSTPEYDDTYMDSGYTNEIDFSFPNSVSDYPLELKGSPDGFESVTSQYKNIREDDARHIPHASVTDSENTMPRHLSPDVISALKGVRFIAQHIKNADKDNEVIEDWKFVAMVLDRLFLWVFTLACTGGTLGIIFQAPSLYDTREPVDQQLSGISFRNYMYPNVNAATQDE
T1 sequence (A0A9B0BGM1 19-519): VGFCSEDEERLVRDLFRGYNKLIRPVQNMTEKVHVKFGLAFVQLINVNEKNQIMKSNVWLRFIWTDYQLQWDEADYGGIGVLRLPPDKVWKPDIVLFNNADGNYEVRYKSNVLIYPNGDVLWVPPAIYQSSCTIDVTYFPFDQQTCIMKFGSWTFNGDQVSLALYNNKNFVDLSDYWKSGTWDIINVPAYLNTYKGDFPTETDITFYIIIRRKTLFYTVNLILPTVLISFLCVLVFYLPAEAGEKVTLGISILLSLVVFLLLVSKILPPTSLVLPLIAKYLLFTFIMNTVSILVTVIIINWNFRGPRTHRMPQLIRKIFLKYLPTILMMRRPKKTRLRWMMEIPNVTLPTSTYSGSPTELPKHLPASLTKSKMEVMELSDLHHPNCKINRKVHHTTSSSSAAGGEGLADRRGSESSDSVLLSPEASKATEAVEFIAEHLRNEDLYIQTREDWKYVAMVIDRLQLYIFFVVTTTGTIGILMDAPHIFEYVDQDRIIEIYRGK

[2] = molecular target: Amα1/Amα2/Amα8/Amβ1 nAChR (Apis mellifera, UniProt A0A7M7MMZ9+A0A8U0WQ70+A0A8U0WQC0+A0A8U0WQD1)
Amα1/Amα8/Amβ1 nAChR = molecular target: T2, Amα1/Amα8/Amβ1 nAChR (Apis mellifera, UniProt A0A7M7MMZ9+A0A8U0WQ70+A0A8U0WQC0)
T2 sequence (A0A7M7MMZ9 44-627): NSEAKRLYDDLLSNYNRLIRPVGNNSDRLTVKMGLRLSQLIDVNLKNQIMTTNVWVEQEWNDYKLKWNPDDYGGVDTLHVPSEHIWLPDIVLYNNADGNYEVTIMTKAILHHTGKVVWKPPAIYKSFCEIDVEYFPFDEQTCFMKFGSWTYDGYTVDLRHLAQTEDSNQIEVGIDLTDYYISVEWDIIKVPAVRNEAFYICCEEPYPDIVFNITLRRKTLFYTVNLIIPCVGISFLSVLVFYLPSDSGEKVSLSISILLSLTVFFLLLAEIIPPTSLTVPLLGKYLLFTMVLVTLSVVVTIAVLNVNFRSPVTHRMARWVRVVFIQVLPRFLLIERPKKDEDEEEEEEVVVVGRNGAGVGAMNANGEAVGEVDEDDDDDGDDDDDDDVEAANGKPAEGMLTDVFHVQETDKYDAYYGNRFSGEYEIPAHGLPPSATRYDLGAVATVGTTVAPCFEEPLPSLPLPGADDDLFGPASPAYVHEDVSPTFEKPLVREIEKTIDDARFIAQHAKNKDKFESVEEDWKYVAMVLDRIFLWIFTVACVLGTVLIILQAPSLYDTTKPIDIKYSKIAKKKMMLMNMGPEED
T2 sequence (A0A8U0WQ70 25-537): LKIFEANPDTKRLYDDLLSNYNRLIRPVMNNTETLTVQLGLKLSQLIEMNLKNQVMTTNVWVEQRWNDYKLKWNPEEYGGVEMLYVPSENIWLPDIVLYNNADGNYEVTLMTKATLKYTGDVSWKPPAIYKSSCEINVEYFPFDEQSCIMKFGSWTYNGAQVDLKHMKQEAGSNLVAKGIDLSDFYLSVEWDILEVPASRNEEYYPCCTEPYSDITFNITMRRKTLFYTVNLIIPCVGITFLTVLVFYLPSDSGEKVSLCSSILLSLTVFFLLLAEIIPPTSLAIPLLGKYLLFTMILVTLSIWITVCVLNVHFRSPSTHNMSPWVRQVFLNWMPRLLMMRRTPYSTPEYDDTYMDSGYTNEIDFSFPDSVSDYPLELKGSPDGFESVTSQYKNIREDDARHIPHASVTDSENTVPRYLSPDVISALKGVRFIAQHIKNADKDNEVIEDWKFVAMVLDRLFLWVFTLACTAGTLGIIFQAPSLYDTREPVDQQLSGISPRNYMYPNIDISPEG
T2 sequence (A0A8U0WQC0 25-520): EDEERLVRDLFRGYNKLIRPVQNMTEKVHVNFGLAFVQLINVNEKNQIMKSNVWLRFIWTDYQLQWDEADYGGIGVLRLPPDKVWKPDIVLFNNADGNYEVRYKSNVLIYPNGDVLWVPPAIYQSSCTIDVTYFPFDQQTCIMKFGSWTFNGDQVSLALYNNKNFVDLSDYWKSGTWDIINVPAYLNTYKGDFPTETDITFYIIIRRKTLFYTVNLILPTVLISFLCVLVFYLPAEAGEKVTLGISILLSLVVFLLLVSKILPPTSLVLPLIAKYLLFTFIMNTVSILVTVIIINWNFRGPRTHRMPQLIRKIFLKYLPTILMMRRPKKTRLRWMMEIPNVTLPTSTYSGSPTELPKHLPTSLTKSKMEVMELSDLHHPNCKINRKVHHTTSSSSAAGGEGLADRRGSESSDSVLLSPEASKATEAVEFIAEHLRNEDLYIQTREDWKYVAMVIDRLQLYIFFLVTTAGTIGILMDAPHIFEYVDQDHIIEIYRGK

Sequence of Amα1/Amα2/Amα8/Amβ1 nAChR (A0A8U0WQD1 18-541, one chain of several): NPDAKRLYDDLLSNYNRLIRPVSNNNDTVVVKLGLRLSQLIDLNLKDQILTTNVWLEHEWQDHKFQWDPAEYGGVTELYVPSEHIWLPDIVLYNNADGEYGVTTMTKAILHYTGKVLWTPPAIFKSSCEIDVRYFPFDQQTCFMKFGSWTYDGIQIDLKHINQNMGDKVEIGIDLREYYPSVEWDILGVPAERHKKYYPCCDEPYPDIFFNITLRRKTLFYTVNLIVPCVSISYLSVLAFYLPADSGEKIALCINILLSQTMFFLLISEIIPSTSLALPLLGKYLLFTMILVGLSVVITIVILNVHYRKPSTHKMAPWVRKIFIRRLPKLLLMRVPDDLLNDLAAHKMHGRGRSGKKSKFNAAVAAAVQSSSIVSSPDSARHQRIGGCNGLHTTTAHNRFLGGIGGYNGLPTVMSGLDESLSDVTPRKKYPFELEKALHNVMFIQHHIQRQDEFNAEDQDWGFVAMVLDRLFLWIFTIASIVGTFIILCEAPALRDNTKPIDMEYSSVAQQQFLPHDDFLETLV
Sequence of Btα1/Btα2/Btα8/Btβ1 nAChR (A0A9B2JMX7 18-544, one chain of several): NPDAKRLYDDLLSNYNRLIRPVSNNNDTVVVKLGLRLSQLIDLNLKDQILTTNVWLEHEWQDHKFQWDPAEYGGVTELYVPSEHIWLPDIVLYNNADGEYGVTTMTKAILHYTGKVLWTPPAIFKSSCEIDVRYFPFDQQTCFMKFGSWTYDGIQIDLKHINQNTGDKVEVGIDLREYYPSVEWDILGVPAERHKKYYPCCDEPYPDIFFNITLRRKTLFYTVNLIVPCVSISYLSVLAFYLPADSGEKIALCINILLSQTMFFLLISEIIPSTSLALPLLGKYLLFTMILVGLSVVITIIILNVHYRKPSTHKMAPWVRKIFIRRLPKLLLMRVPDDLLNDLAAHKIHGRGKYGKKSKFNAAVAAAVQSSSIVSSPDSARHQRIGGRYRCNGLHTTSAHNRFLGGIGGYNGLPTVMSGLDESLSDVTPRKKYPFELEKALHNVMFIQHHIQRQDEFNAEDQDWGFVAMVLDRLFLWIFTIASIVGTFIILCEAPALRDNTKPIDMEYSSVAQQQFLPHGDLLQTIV

- EC50 [1]: 2190 nM
- EC50 (Btα1/Btα8/Btβ1 nAChR): 1580 nM
- EC50 [2]: 1910 nM
- EC50 (Amα1/Amα8/Amβ1 nAChR): 1150 nM
Structure (SMILES): CC(=O)OCC[N+](C)(C)C [Acetylcholine]
